Like-named read-outs stand apart in the source and are kept apart here.
What was measured:
[1] = Mixing with 0.2 M phosphate buffer, light transmittance (660 nm) to evaluate insoluble salt formation; assay type: physicochemical
Description: A 100 g/L solution, in terms of free form, was prepared using the crystal of monovalent cation salt nonhydrate of HMB, obtained in each of Examples 2, 5 and 7, and mixed with 0.2 M phosphate buffer (pH: 6.80) in an arbitrary mixing ratio. The solution after mixing was measured for the light transmittance (660 nm) to evaluate the presence or absence of insoluble salt formation. In Table 13, “-” indicates unevaluated.

[2] = assay type: physicochemical
Description: The sodium HMB nonhydrate obtained in Example 2 was mixed with a glucose-amino acids-electrolytes infusion solution for peripheral vain nutrition [pH: about 6.7; Product Name: Aminofluid Infusion Solution (Otsuka Pharmaceutical Factory, Inc.)] to obtain 0, 0.11, 0.21 and 0.42 weight/volume % solutions at final concentration in terms of free form. The light transmittance (660 nm) was measured by ultraviolet and visible spectrophotometer immediately after the mixing or 24 hours after being left at room temperature to evaluate the presence or absence of insoluble salt formation.

[3] = rat, in vivo
Description: The solution was continuously administered to a rat on which operative stress was incurred by intestinal tract scratch operation at a normal dose (240 mL/kg/day) for 3 days. On the final day of administration, urine was collected by 24-hour urine collection and measured for the urinary electrolyte concentration.

[4] = Measurement of solubility in water at room temperature (HMB concentration of supernatant by HPLC); assay type: physicochemical
Description: The crystal of monovalent cation salt nonhydrate of HMB, obtained in each of Examples 2, 5 and 7, was added at room temperature until it dissolved in water and after keeping the solution for a sufficient time under stirring, the supernatant containing no crystal was sampled and measured for the HMB concentration by using HPLC.

[5] = pH of aqueous solution of 100 g/L salt crystal in terms of free HMB; assay type: physicochemical
Description: As for pH, an aqueous solution of 100 g/L salt crystal in terms of free HMB was measured.

[6] = mixing ratio 0.33 Vol/Vol (aqueous 100 g/L HMB solution/0.2M phosphate buffer pH 6.80)
[7] = mixing ratio 0.57 Vol/Vol (aqueous 100 g/L HMB solution/0.2M phosphate buffer pH 6.80)
[8] = HMB final concentration 0.11 weight/volume % in Aminofluid, 0 h after addition
[9] = HMB final concentration 0.11 weight/volume % in Aminofluid, 24 h after addition, room temperature
[10] = HMB final concentration 0.21 weight/volume % in Aminofluid, 0 h after addition
[11] = HMB final concentration 0.42 weight/volume % in Aminofluid, 24 h after addition, room temperature
[12] = mixing ratio 0.17 Vol/Vol (aqueous 100 g/L HMB solution/0.2M phosphate buffer pH 6.80)

SMILES	Transmittance T % (660 nm) [1, 6] [%]	Transmittance T % (660 nm) [1, 7] [%]	Insoluble salt formation (in words) ([1]; mixing with phosphate buffer)	Insoluble salt formation (in words) [2]	Transmittance T % (660 nm) [2, 8] [%]	Transmittance T % (660 nm) [2, 9] [%]	Transmittance T % (660 nm) [2, 10] [%]	Transmittance T % (660 nm) [2, 11] [%]	Electrolyte abnormality (in words) [3]	Transmittance T % (660 nm) [1, 12] [%]	pH [5]	Solubility [4] [mg/mL]	Solubility (in terms of free form) [4] [mg/mL]	Solubility in water compared to existing calcium salt (in words) [4]	Insoluble salt formation (in words) [1]	further results
CC(C)(O)CC(=O)[O-].CC(C)(O)CC(=O)[O-].O.[Ca+2] [Calcium HMB hydrate, reference compound]	0.02	0	produces an insoluble salt	forms an insoluble salt	100	70	90	20	induces the increase in urinary calcium and the decrease in urinary phosphate excretion							Transmittance T % (660 nm) ([1]; mixing ratio 0.01 Vol/Vol (aqueous 100 g/L HMB solution/0.2M phosphate buffer pH 6.80)): 60%
CC(C)(O)CC(=O)[O-].[Na+] [Example 2, sodium HMB nonhydrate]	100	100	do not form an insoluble salt	does not form an insoluble salt	100	100	100	100	does not induce the above electrolyte abnormality	100	7.9					Solubility ([4]; in water, room temperature): 729 mg/mL; Solubility in water compared to existing calcium salt (in words) ([4]; in water, room temperature): greatly enhanced in the solubility in water; Solubility (in terms of free form) ([4]; in water, room temperature, in terms of free HMB): 513 mg/mL; Transmittance T % (660 nm) ([2]; HMB final concentration 0.21 weight/volume % in Aminofluid, 24 h after addition, room temperature): 100%; Transmittance T % (660 nm) ([2]; HMB final concentration 0.42 weight/volume % in Aminofluid, 0 h after addition): 100%
CC(C)(O)CC(=O)[O-].[K+] [Example 5, potassium HMB nonhydrate]	100	100								100	7.9	1011	764	greatly enhanced in the solubility in water	do not form an insoluble salt	
CC(C)(O)CC(=O)O.N [Example 7, ammonium HMB nonhydrate]	100	100								100	5.7	660	577	greatly enhanced in the solubility in water	do not form an insoluble salt	
